For one test, the target named is eEF2K (Homo sapiens, UniProt O00418). As to conditions: known selenazine inhibitors; cited from earlier work.
For the next test, the system named is glioma cell lines. The settings on record: by inhibiting eEF2-K; Parmer et al, 1997; cited from earlier work.
Another test concerns the target eEF2 kinase (Homo sapiens, UniProt O00418). Kind of test: eEF2 kinase activity assay with purified eEF2 (33P-ATP, SDS-PAGE, autoradiography). The test is classed as biochemical. As to conditions: purified eEF2, FIG. 1.

Sequence of eEF2K (O00418 whole entry): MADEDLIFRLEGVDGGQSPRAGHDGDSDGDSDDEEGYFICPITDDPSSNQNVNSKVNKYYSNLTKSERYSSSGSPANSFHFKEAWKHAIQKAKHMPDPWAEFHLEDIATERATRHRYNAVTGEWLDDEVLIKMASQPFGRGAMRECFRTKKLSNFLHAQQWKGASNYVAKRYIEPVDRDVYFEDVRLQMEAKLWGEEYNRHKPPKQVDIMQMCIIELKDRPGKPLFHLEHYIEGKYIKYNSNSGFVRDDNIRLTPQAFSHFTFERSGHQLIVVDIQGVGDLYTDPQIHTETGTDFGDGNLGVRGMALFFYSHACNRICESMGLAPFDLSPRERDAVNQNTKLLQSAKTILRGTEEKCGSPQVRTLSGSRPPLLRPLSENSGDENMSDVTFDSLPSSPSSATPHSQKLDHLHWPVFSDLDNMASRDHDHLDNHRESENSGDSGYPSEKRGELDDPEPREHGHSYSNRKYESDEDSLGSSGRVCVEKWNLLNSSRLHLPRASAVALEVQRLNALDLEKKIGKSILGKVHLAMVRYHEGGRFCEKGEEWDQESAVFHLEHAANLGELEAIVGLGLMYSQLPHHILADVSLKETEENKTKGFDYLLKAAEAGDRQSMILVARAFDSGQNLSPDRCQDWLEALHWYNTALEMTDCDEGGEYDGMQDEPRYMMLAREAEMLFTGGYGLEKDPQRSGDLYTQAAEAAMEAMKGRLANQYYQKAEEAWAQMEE
Method for eEF2 kinase: Recombinant eEF2 kinase (0.5 μg) was incubated with purified rabbit reticulocyte eEF2 (0.5 μg) in a reaction mixture consisting of 50 mM Hepes-KOH pH 6.6, 10 mM magnesium acetate, 5 mM DTT, 100 μM CaCl2, 0.5 μg calmodulin, 50 μM ATP, and 0.2 μCi [γ-^33P]-ATP (3000 Ci/mmol). The reactions were run at 30° C. for 15 minutes, and were terminated by incubation in an ice/water bath and addition of Laemmli sample buffer. Samples were analyzed by SDS-PAGE and autoradiography.

In the case of `CCCCCC1=NC(O)(CC)CC[Se]1` (centres unmarked) [PS2], the “inhibition of eEF2K phosphorylative activity” value on eEF2K is “known to inhibit eEF2K phosphorylative activity”. Turning to `CC(=O)c1c(O)c(C)c(O)c(Cc2c(O)c3c(c(C(=O)/C=C/c4ccccc4)c2O)OC(C)(C)C=C3)c1O` [Rottlerin], the “inhibition of growth of glioma cell lines” value in the test on glioma cell lines is “inhibit growth of glioma cell lines”. On to `CCC1(O)CC[Se]C(c2ccc(C)cc2)=N1` (centres unmarked) [TS2], for which the “inhibition of eEF2K phosphorylative activity” value on eEF2K is given as “known to inhibit eEF2K phosphorylative activity”.

On to `Cc1ccc(C2=NC(C)(O)CC(C(C)C)[Se]2)cc1` (centres unmarked) [TS4], for which, on eEF2K, the “inhibition of eEF2K phosphorylative activity” value is listed as “known to inhibit eEF2K phosphorylative activity”. For the compound `CCCCCCCCCCCCC/C=C/[C@@H](O)[C@@H](N)COP(=O)(O)O` [sphingosine-1-phosphate], the “inhibition of eEF2 kinase in vitro” value at eEF2 kinase was “inhibit eEF2 kinase in vitro”.

Source of the values: patent US20120178769A1, “NOVEL COMPOUNDS FOR INHIBITING EEF-2 KINASE ACTIVITY” (The University of Medicine and Dentistry, priority 2009, published 2012).
